In patent US20110229447A1, “NUTRITIONAL SUPPORT TO PREVENT OR MODERATE BONE MARROW PARALYSIS OR NEUTROPENIA DURING ANTI-CANCER TREATMENT” (priority 2008, published 2011):

Key:
[1] = test system: γδ T cells; settings: acid hydrolysed, diluted in media; 5%-75%; cited from earlier work
[2] = Example 2: body weight, haematology and flow cytometry of immune cells in tumor-bearing mice on supplemented diets with or without chemotherapy; type: in vivo, C57BL/6 (H-2b) mice; settings: for Global lymphocyte population: following chemotherapy; for immune cell population / concentration: during the second (tumor-induced) phase
Protocol: Mice. […] The animals were distributed into 7 different group diets. There was a control group that received the diet AIN 93 for adult rodents (maintenance). Test diets were administered in doses appropriate to the animal model: (a) Ctrl diet were supplemented with 1% (w/w) L-arginine, (b) 25% of the protein was replaced by glutamine, (c) 1% (w/w) L-citrulline, (d) 1 g/Kg body weight with active hexose correlated compound, (e) 20 mg/day of RNA nucleotides and (f) 25 mg/day of lactoferrin. […] Control animals without chemotherapeutic treatment were run in parallel for all tested diets. Body weight was assessed every two days. Blood samples were obtained at day 2, 4 and 10 after the chemo-treatment and at sacrifice (14 or 28 days). An autopsy was performed and tumor mass was assessed.
Haematological Evaluation.
Flow Cytometric Analysis.

[3] = Example 1: body weight and haematological toxicity of chemotherapy in tumor-bearing mice
Protocol: Mice. Inbred eight-week-old C57BL/6 (H-2b) mice were used in the experiments. Mice were inoculated subcutaneously (s.c.) on the left flank with 1×10^6 tumor cells, and tumor growth was monitored every 2 days by caliper measurement. 6 days after the tumor inoculation the animals were treated either with oxaliplatin or doxorubicin. Tumor growth was monitored every two days after the chemotherapeutic treatment and they were sacrificed after two weeks of tumor implantation. Some experiments were carried out until 28 days post-chemo to better assess tumor growth.
Body weight was assessed every two days until sacrifice.
Blood samples were obtained at day 2 and 4 after the chemo-treatment, at day 10 and at sacrifice (14 or 28 days). An autopsy was performed and tumoral mass was assessed.
Haematological Evaluation. Red blood cell enumeration, hemoglobin and hematocrit were measured at 2, 4, 10, 14 and 28 days.
White blood cell counts and differential leukocyte formulation were examined at the same time points. Blood samples were used in addition to determine immune cell populations.
Flow Cytometric Analysis. Cell subset analysis of the CD11c^+, CD11b^+Gr-1^+ and CD11b^+Gr-1^−, CD14^+, CD19^+, CD16^+, CD56^+, CD3^+, CD8^+, CD4^+ was performed. The battery of antibodies used permitted the evaluation of: B and T cell subsets NK, NKT cells, macrophages, dendritic cells, granulocytes.

[4] = test system: MCA-OVA tumor cells; experiment: Example 2: tumor growth in mice on supplemented diets with or without chemotherapy; type: in vivo, C57BL/6 (H-2b) mice
Protocol: Mice. […] The animals were distributed into 7 different group diets. There was a control group that received the diet AIN 93 for adult rodents (maintenance). […] Control animals without chemotherapeutic treatment were run in parallel for all tested diets. Body weight was assessed every two days. Blood samples were obtained at day 2, 4 and 10 after the chemo-treatment and at sacrifice (14 or 28 days). An autopsy was performed and tumor mass was assessed.
Cancer Cell Lines. Methylcholanthrene (MCA) induced sarcoma cell line expressing the exogenous antigen ovalbumin (OVA) was grown in DMEM or RPMI 1640 supplemented with 2 mM L-glutamine, 10 mM HEPES, 20 μM 2-mercaptoethanol, 150 U/mL streptomycin, 200 U/mL penicillin, and 10% heat-inactivated FBS. 1×10^6 tumor cells were injected in the flank of the mice 6 days prior to the chemotherapy.
Tumor Growth Evaluation. Growth of tumors was monitored every 2 d by using calipers, and tumor volume was calculated by using the formula length×width×width×0.52 mm^3.

[5] = test system: NK cell; settings: about 750 mg per day for two weeks; cited from earlier work

Question: For `CCNC(=O)CC[C@H](N)C(=O)O` [L-theanine], which “expansion of γδ T cells” value [1] is on record?
Answer: 15 fold

Question: Which Global lymphocyte population [2] does the source give for `NC(=O)CC[C@H](N)C(=O)O` [glutamine] here?
Answer: less depressed

Question: For `O=C1[O][Pt]2([NH][C@@H]3CCCC[C@H]3[NH]2)[O]C1=O` [oxaliplatin], which Maximal weight loss ([3]; maximal dose 10 mg/kg, of initial body weight) is on record?
Answer: around 15%

Question: What about the leukocyte counts ([3]; recovery starting after 7 days post chemotherapy) of the same molecule?
Answer: higher that the baseline counts

Question: What about the Maximal weight loss ([2]; maximal dose 10 mg/kg) of the same molecule?
Answer: around 15%

Question: Which tumor size ([4]; combination with chemotherapy versus chemotherapy alone (FIG. 4)) does the source give for `N=C(N)NCCC[C@H](N)C(=O)O` [arginine, L-arginine] here?
Answer: further reduced the tumor size

Question: What about the “progression of the implanted tumor” value ([4]; compared to other diet groups) of the same molecule?
Answer: delayed progression of the implanted tumor

Question: And the “fall of erythrocytes (RBC)” value ([2]; between days 6 and 10 post-chemo (FIG. 3))?
Answer: prevented the marked fall of erythrocytes

Question: And the “immune cell population / concentration” value [2]?
Answer: increase immune cell concentration

Question: And the “loss of CD3+ cells” value ([2]; flow cytometry, around 10 days post chemotherapy)?
Answer: partially modulated

Question: For `NC(=O)NCCC[C@H](N)C(=O)O` [citrulline, L-citrulline], which Global lymphocyte population [2] is on record?
Answer: less depressed

Question: What does the source list for vitamin E?
Answer: NK cell cytolytic activity [5]: significantly improved; NKG2D expression [5]: small but consistent induction

Question: For lactoferrin, which “toxicity (bone marrow / blood cells)” value ([2]; chemotherapy treated group versus control (FIG. 11)) is on record?
Answer: less toxicity

Question: And the “immune cell population / concentration” value [2]?
Answer: increase in their immune cell population

Question: What about the Global lymphocyte population [2] of the same molecule?
Answer: less depressed

Question: What about the “leukocytic increase (white blood cell counts)” value ([2]; oxaliplatin treated animals, after day ten) of the same molecule?
Answer: leukocytic increase tended to be higher
